SMILES strings stand for the structures.

One data set in a line: physchem. The data set is classed as physicochemical.
Details: not given
In short, it runs like this: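 Following EEC Directive 79/831 Annex V.A8, logP is obtained from retention on a 1.8 micron C18 column (50×4.6 mm) at 55 °C and 2.0 ml/min. Elution ran 10→95% acetonitrile (0.1% formic acid) against water (0.09% formic acid) in 4.25 min, held 1.25 min; mass detection used.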
Take `Cn1nc(C(F)(F)C(F)(F)F)c(C(F)(F)F)c1C(=O)Nc1ccc(Cl)c(C(=O)OCC(=O)NCO)c1` [Ik-115]: the logP is 2.93^a).

`O=C(NCc1ccccc1)c1cc(NC(=O)c2nccc(C(F)(F)F)c2Cl)ccc1Cl` [Ie-5]: the logP is listed as 3.16^a).

For `Cn1nc(C(F)(F)C(F)(F)F)c(C(F)(F)F)c1C(=O)Nc1cc(F)c(Br)c(C(=O)NCC(F)(F)F)c1` [Ik-228], the logP was 3.88^a).

On to `O=C(Nc1cc(Br)c(Cl)c(C(=O)NC2CC2)c1)c1cnc(C(F)(F)C(F)(F)F)nc1C(F)(F)F` [Ib-36], for which the logP is 3.62^a).

Take `CC(NC(=O)c1cc(NC(=O)c2c(C(F)(F)F)c(C(F)(F)C(F)(F)F)nn2C)ccc1Br)C(F)(F)F` (centres unmarked) [Ik-174]: the logP is on record as 3.95^a).

In the case of `Cc1nc(C(F)(F)C(F)(F)F)ncc1C(=O)Nc1ccc(Cl)c(C(=O)NCC(F)(F)F)c1` [Ib-24], the logP is listed as 3.16^a).

As for `Cn1nc(C(F)(F)C(F)(F)F)c(C(F)(F)F)c1C(=O)Nc1ccc([N+](=O)[O-])c(C(=O)NC2CC2)c1` [Ik-180], the logP was 3.27^a).

In the case of `Cn1nc(-c2ccc(Cl)cc2Cl)c(Br)c1C(=O)Nc1ccc(Cl)c(C(=O)NCC(F)(F)F)c1` [Ik-254], the logP is listed as 4.04^a).

Consider `Cn1nc(C(F)(F)F)c(Br)c1C(=O)Nc1ccc(Cl)c(C(=O)NCC=CCl)c1` [Ik-22], for which the logP is given as 3.20^a).

Take `O=C(NCC=CCl)c1cc(NC(=O)c2cnc(C(F)(F)F)nc2C(F)(F)F)ccc1Cl` [Ib-5]: the logP is 3.19^a).

`Cn1nc(C(F)(F)C(F)(F)F)c(C(F)(F)F)c1C(=O)Nc1cc(Br)c(Br)c(C(=O)NCC(F)(F)F)c1` [Ik-209]: the logP is given as 4.18^a).

For the molecule `CC(C)NC(=O)c1cc(NC(=O)c2c(Br)c(C(F)(F)C(F)(F)F)nn2C)ccc1Cl` [Ik-27], the logP was 3.49^a).

In the case of `Cn1nc(C2CC2)c(Br)c1C(=O)Nc1ccc(Cl)c(C(=O)NC2CC2)c1` [Ik-235], the logP is recorded as 2.60^a).

`Cn1nc(C(F)(F)C(F)(F)F)c(C(F)(F)F)c1C(=O)Nc1ccc(I)c(C(=O)NCc2ccccc2)c1` [Ik-184]: the logP is given as 4.07^a).

As for `O=C(NCC(F)(F)F)c1cc(NC(=O)c2cnc(C(F)(F)C(F)(F)F)nc2C2CC2)ccc1Cl` [Ib-31], the logP was 3.65^a).

With `Cn1nc(C(F)(F)C(F)(F)F)c(C(F)(F)F)c1C(=O)Nc1cc(Br)c(Br)c(C(=O)NC2CC2)c1` [Ik-207], the logP is reported as 3.84^a).

In the case of `Cn1nc(C(F)F)c(C(F)(F)F)c1C(=O)Nc1ccc(Cl)c(C(=O)NC2CC2)c1` [Ik-231], the logP is 2.46^a).

`CNC(=O)c1cc(NC(=O)c2ccc(C(F)(F)F)nc2C)ccc1Cl` [Ir-5]: the logP is 1.97^a).

`Cn1nc(C(F)(F)C(F)(F)F)c(C(F)(F)F)c1C(=O)Nc1ccc(Cl)c(C(=O)NCc2ccccc2)c1Cl` [Ik-149]: the logP is reported as 4.33^a).

On to `Cn1nc(C(F)(F)F)c(C(F)(F)F)c1C(=O)Nc1ccc(Cl)c(C(=O)NC2CC2)c1` [Ik-195], for which the logP is listed as 2.89^a).

On to `CSCCNC(=O)c1cc(NC(=O)c2c(C(F)(F)F)c(C(F)(F)C(F)(F)F)nn2C)ccc1Cl` [Ik-82], for which the logP was 3.57^a).

Turning to `CC(C)(F)n1nc(C(F)C(F)(F)F)c(C(F)(F)F)c1C(=O)Nc1ccc(Cl)c(C(=O)NC2CC2)c1` (centres unmarked) [Ik-100], the logP is reported as 3.39^a).

As to `Cn1nc(C(F)(F)C(F)(F)F)c(C(F)(F)F)c1C(=O)Nc1ccc(Cl)c(C(=O)NCC=C(Cl)Cl)c1` [Ik-186], the logP was 4.09^a).

Regarding `Cn1nc(C(F)(F)C(F)(F)F)c(C(F)(F)F)c1C(=O)Nc1cc(Cl)c(Br)c(C(=O)NCc2ccccc2)c1` [Ik-214], the logP is recorded as 4.42^a).

On to `Cn1nc(C(F)(F)F)c(I)c1C(=O)Nc1ccc(Cl)c(C(=O)NC2CC2)c1` [Ik-182], for which the logP was 2.70^a).

Consider `Cn1nc(C(F)(F)F)c(Cl)c1C(=O)Nc1ccc(Cl)c(C(=O)NC2CC2)c1` [Ik-18], for which the logP was 2.77^a).

On to `Cn1nc(C(F)(F)C(F)(F)F)c(C(F)(F)F)c1C(=O)Nc1ccc(Cl)c(C(=O)NS(C)(=O)=O)c1` [Ik-24], for which the logP is given as 3.13^a).

Regarding `Cc1nc(C(F)(F)C(F)(F)F)nc(C)c1C(=O)Nc1ccc(Cl)c(C(=O)NC2CC2)c1` [Ib-8], the logP was 2.82^a).

For `Cn1nc(OCC(F)(F)F)c(I)c1C(=O)Nc1ccc(Cl)c(C(=O)NC2CC2)c1` [Ik-245], the logP is 2.85^a).

Take `Cn1nc(C(F)(F)C(F)(F)F)c(C(F)(F)F)c1C(=O)Nc1cc(C(=O)NCC(F)(F)F)c(F)cc1F` [Ik-146]: the logP is 3.64^a).

Consider `Cc1nc(C(F)(F)F)ccc1C(=O)Nc1ccc(Cl)c(C(=O)NCC(F)(F)F)c1` [Ir-11], for which the logP is listed as 2.67^a).

In the case of `CCN(C(=O)c1c(C(F)(F)F)c(C(F)(F)C(F)(F)F)nn1C)c1ccc(Cl)c(C(=O)NC2CC2)c1` [Ik-136], the logP is 3.55^a).

In the case of `O=C(NCC(F)(F)F)c1cc(NC(=O)c2cnc(C(F)(F)F)nc2C(F)(F)F)ccc1Cl` [Ib-4], the logP is 3.14^a).

Regarding `Cn1nc(C(F)(F)C(F)(F)F)c(C(F)(F)F)c1C(=O)Nc1ccc2c(c1)C(=O)OC2` [Ik-106], the logP was 3.20^a).

As for `CC(NC(=O)c1cc(NC(=O)c2c(Br)c(C(F)(F)C(F)(F)F)nn2C)ccc1Cl)C1CC1` (centres unmarked) [Ik-12], the logP is listed as 3.84^a).

Still in this data set, the particulars now being: HPLC method a), eluent acetonitrile/water with formic acid; read-out: logP.
Take `Cn1cc(Br)c(C(F)(F)C(F)(F)C(F)(F)F)n1` [4-Bromo-1-methyl-3-heptafluoropropyl-1H-pyrazole]: the chromatographic logP was found to be 3.53.

Staying with this data set, now noted: HPLC phase inversion (reversed-phase) C18 column, HPLC method a), eluent acetonitrile/water with formic acid; read-out: logP.
For the molecule `Cn1nc(OC(F)F)c(C(F)(F)F)c1C(=O)Nc1ccc(Cl)c(C(=O)NCC(F)(F)F)c1` [Ik-126, N-{4-Chloro-3-[(2,2,2-trifluoroethyl)carbamoyl]phenyl}-3-(difluoromethoxy)-1-methyl-4-(trifluoromethyl)-1H-pyrazole-5-carboxamide], the chromatographic logP was determined as 3.01.

For the molecule `Cn1nc(C(F)C2CC2)c(C(F)(F)F)c1C(=O)Nc1ccc(Cl)c(C(=O)NC2CC2)c1` (centres unmarked) [Ik-233, N-[4-Chloro-3-(cyclopropylcarbamoyl)phenyl]-3-[cyclopropyl(fluoro)methyl]-1-methyl-4-(trifluoromethyl)-1H-pyrazole-5-carboxamide], the chromatographic logP came to 2.76.

As for `O=C(NCC(F)(F)F)c1cc(NC(=O)c2[nH]nc(C(F)(F)C(F)(F)F)c2C(F)(F)F)ccc1Cl` [Ik-124, N-{4-Chloro-3-[(2,2,2-trifluoroethyl)carbamoyl]phenyl}-3-(pentafluoroethyl)-4-(trifluoromethyl)-1H-pyrazole-5-carboxamide], the chromatographic logP came out at 3.26.

As for `CCn1nc(C(F)(F)C(F)(F)F)c(C(F)(F)F)c1C(=O)O` [1-Ethyl-3-(pentafluoroethyl)-4-(trifluoromethyl)-1H-pyrazole-5-carboxylic acid], the chromatographic logP stood at 2.18.

For `Cc1nc(C(=O)Nc2ccc(Cl)c(C(=O)O)c2)c(C(F)(F)F)c(C(F)(F)C(F)(F)F)n1` [2-chloro-5-({[2-methyl-6-(pentafluoroethyl)-5-(trifluoromethyl)pyrimidin-4-yl]carbonyl}amino)benzoic acid], the chromatographic logP stood at 3.3.

On to `CCOC(=O)c1cc(NC(=O)c2nc(C)nc(C(F)(F)C(F)(F)F)c2C(F)(F)F)ccc1Cl` [ethyl 2-chloro-5-({[2-methyl-6-(pentafluoroethyl)-5-(trifluoromethyl)pyrimidin-4-yl]-carbonyl}amino)benzoate], for which the chromatographic logP is 4.55.

Still in this data set, the particulars now being: HPLC phase inversion (reversed-phase) C18 column, HPLC on C18 phase inversion column, method a); read-out: logP.
With `Cn1nc(OC(F)F)c(C(F)(F)F)c1C(=O)Nc1ccc(Cl)c(C(=O)NCC(F)(F)F)c1` [Ik-126, N-{4-Chloro-3-[(2,2,2-trifluoroethyl)carbamoyl]phenyl}-3-(difluoromethoxy)-1-methyl-4-(trifluoromethyl)-1H-pyrazole-5-carboxamide], the chromatographic logP worked out at 3.01.

`O=C(NCC(F)(F)F)c1cc(NC(=O)c2[nH]nc(C(F)(F)C(F)(F)F)c2C(F)(F)F)ccc1Cl` [Ik-124, N-{4-Chloro-3-[(2,2,2-trifluoroethyl)carbamoyl]phenyl}-3-(pentafluoroethyl)-4-(trifluoromethyl)-1H-pyrazole-5-carboxamide]: the chromatographic logP is 3.26.

For the origin of these results see US8946234B2, “Halogen-substituted compounds” (Bayer CropScience AG, priority 2008, dated 2015).
